Results on seven compounds are retold here after patent US8076487B2, “Pyridone derivative and herbicide” (Kumiai Chemical Industry Co., Ltd., priority 2006, dated 2011).

Assay type in all cases: in vivo
Experiment [1] concerns green foxtail (Setaria viridis (L.) P. Beauv.). Briefly: Test Example 2: herbicidal effect by soil application to upland field. The following applies: soil surface spray, upland field soil, 1,000 g active ingredient per hectare, 21st day after application. The essentials:
(§1)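 In this soil-application test, sown and soil-covered pots are sprayed uniformly with the formulation diluted in water, giving 1,000 g of active ingredient per ha in a volume of 1,000 L per ha. Plants then grow in a greenhouse for 21 days before herbicidal scoring by a standard scale.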

The test system of experiment [2] is barnyardgrass (Echinochloa crus-galli (L.) P. Beauv. var. crus-galli). The description is as above. The following applies: soil surface spray, upland field soil, 1,000 g active ingredient per hectare, 21st day after application. The essentials:
as §1

Experiment [3] has as its system velvetleaf (Abutilon theophrasti medicus). The experiment is described as above. The following applies: soil surface spray, upland field soil, 1,000 g active ingredient per hectare, 21st day after application. The gist of the method: as §1
Experiment [4] deals with slender amaranth (Amaranthus viridis L.). The description is as above. The following applies: soil surface spray, upland field soil, 1,000 g active ingredient per hectare, 21st day after application. The gist of the method: as §1
For experiment [5], the system named is green foxtail (Setaria viridis (L.) P. Beauv.). Nature of the experiment: Test Example 3: herbicidal effect by application to upland field (foliage treatment). Conditions: 14th day after application; for herbicidal effect, Green Foxtail: foliage treatment, 1,000 g active ingredient per 1 hectare, greenhouse; for herbicidal effect (index), Green Foxtail: foliage treatment, plants grown two weeks, 1,000 g active ingredient per hectare. The gist of the method: (§2)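 Post-emergence spray at 1,000 g AI/ha of wettable powder in water (1,000 L/ha), onto seedlings grown 2 weeks in greenhouse field-soil pots. Graded day 14.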

In experiment [6] the test system is barnyardgrass (Echinochloa crus-galli (L.) P. Beauv. var. crus-galli). The description is as above. The following applies: 14th day after application; for herbicidal effect, Barnyardgrass: foliage treatment, 1,000 g active ingredient per 1 hectare, greenhouse; for herbicidal effect (index), Barnyardgrass: foliage treatment, plants grown two weeks, 1,000 g active ingredient per hectare. The essentials:
as §2

Experiment [7] relates to velvetleaf (Abutilon theophrasti medicus). The experiment is described as above. The following applies: 14th day after application; for herbicidal effect, Velvetleaf: foliage treatment, 1,000 g active ingredient per 1 hectare, greenhouse; for herbicidal effect (index), Velvetleaf: foliage treatment, plants grown two weeks, 1,000 g active ingredient per hectare. The essentials: as §2

Experiment [8] deals with slender amaranth (Amaranthus viridis L.). The description is as above. Conditions: 14th day after application; for herbicidal effect, Slender Amaranth: foliage treatment, 1,000 g active ingredient per 1 hectare, greenhouse; for herbicidal effect (index), Slender Amaranth: foliage treatment, plants grown two weeks, 1,000 g active ingredient per hectare. The essentials: as §2

Experiment [9] concerns heartshape false pickerelweed (Monochoria vaginalis (Burm.f.) C.Presl). Briefly: Test Example 1: herbicidal effect by soil application to paddy field. The following applies: paddy field soil application; active ingredient 1,000 g per 1 hectare; wettable powder added dropwise to water surface the day after sowing; examined on the 21st day after application. The gist of the method:
(§3)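 Plants were sown in flooded (3 cm) paddy soil and evaluated for herbicidal effect 21 days after soil application in a greenhouse.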

The subject of experiment [10] is Japanese bulrush (Scirpus juncoides Roxb.). The description is as above. The following applies: paddy field soil application; active ingredient 1,000 g per 1 hectare; wettable powder added dropwise to water surface the day after sowing; examined on the 21st day after application. The gist of the method:
as §3

Experiment [11] deals with early watergrass (Echinochloa oryzicola Vasing). The description is as above. The following applies: paddy field soil application; active ingredient 1,000 g per 1 hectare; wettable powder added dropwise to water surface the day after sowing; examined on the 21st day after application. The gist of the method:
as §3

For the compound `CSCCn1c(C(F)(F)F)ccc(C(=O)C2=C(O)C3CCC(C3)C2=O)c1=O` (centres unmarked) [III-28], the “herbicidal effect (index), Green Foxtail” value in experiment [1] is 5 (90% or more of herbicidal effect and crop phytotoxicity). Moreover, the “herbicidal effect (index), Barnyardgrass” value in experiment [2] is 5 (90% or more of herbicidal effect and crop phytotoxicity). Also, the “herbicidal effect (index), Velvetleaf” value in experiment [3] was 5 (90% or more of herbicidal effect and crop phytotoxicity). Moreover, the “herbicidal effect (index), Slender Amaranth” value in experiment [4] was 5 (90% or more of herbicidal effect and crop phytotoxicity). Besides, in experiment [5], the “herbicidal effect, Green Foxtail” value was 5 (90% or more of herbicidal effect and crop phytotoxicity). For the same compound, in experiment [6], the “herbicidal effect, Barnyardgrass” value is 5 (90% or more of herbicidal effect and crop phytotoxicity). In addition, the “herbicidal effect, Velvetleaf” value in [7] was 5 (90% or more of herbicidal effect and crop phytotoxicity). Moreover, the “herbicidal effect, Slender Amaranth” value in experiment [8] was 5 (90% or more of herbicidal effect and crop phytotoxicity). Also, the “herbicidal effect, Monochoria vaginalis (Burm. f.) C. Presl” value (from here on “herbicidal effect, Monochoria vaginalis”) in experiment [9] was 5 (90% or more of herbicidal effect and crop phytotoxicity). Further, the “herbicidal effect, Scirpus juncoides Roxb.” value in experiment [10] was 5 (90% or more of herbicidal effect and crop phytotoxicity). Besides, the “herbicidal effect, Echinochloa oryzicola Vasing” value in experiment [11] is 5 (90% or more of herbicidal effect and crop phytotoxicity).

As to `CCCS(=O)(=O)Oc1c(C(=O)c2ccc(C(F)(F)F)n(CC3CCCO3)c2=O)cnn1C` (centres unmarked) [IV-140], the “herbicidal effect (index), Green Foxtail” value in experiment [1] was 5 (90% or more of herbicidal effect and crop phytotoxicity). Further, the “herbicidal effect (index), Barnyardgrass” value in experiment [2] was 5 (90% or more of herbicidal effect and crop phytotoxicity). The “herbicidal effect (index), Velvetleaf” value in experiment [3] was 5 (90% or more of herbicidal effect and crop phytotoxicity). Further, the “herbicidal effect (index), Slender Amaranth” value in experiment [4] is 5 (90% or more of herbicidal effect and crop phytotoxicity). Further, the “herbicidal effect, Green Foxtail” value in experiment [5] was 3 (50 to less than 70% of herbicidal effect and crop phytotoxicity). In addition, the “herbicidal effect, Barnyardgrass” value in [6] is 5 (90% or more of herbicidal effect and crop phytotoxicity). Also, the “herbicidal effect, Velvetleaf” value in [7] was 5 (90% or more of herbicidal effect and crop phytotoxicity). The “herbicidal effect, Slender Amaranth” value in experiment [8] was 5 (90% or more of herbicidal effect and crop phytotoxicity). In addition, in [9], the “herbicidal effect, Monochoria vaginalis” value is 5 (90% or more of herbicidal effect and crop phytotoxicity). The “herbicidal effect, Scirpus juncoides Roxb.” value in experiment [10] was 5 (90% or more of herbicidal effect and crop phytotoxicity). Further, the “herbicidal effect, Echinochloa oryzicola Vasing” value in experiment [11] was 5 (90% or more of herbicidal effect and crop phytotoxicity).

As to `O=C1CCCC(O)=C1C(=O)c1ccc(C(F)(F)F)n(-c2cc(F)ccc2F)c1=O` [I-103], the “herbicidal effect (index), Green Foxtail” value in experiment [1] was 5 (90% or more of herbicidal effect and crop phytotoxicity); in [5] it was 5 (90% or more of herbicidal effect and crop phytotoxicity). The “herbicidal effect (index), Barnyardgrass” value in experiment [2] was 5 (90% or more of herbicidal effect and crop phytotoxicity); in [6] it was 5 (90% or more of herbicidal effect and crop phytotoxicity). Also, the “herbicidal effect (index), Velvetleaf” value in experiment [3] is 5 (90% or more of herbicidal effect and crop phytotoxicity); in experiment [7], 5 (90% or more of herbicidal effect and crop phytotoxicity). The “herbicidal effect (index), Slender Amaranth” value in experiment [4] was 5 (90% or more of herbicidal effect and crop phytotoxicity); in [8], 5 (90% or more of herbicidal effect and crop phytotoxicity). Also, the “herbicidal effect, Monochoria vaginalis” value in experiment [9] was 5 (90% or more of herbicidal effect and crop phytotoxicity). In experiment [10], the “herbicidal effect, Scirpus juncoides Roxb.” value was 5 (90% or more of herbicidal effect and crop phytotoxicity). The “herbicidal effect, Echinochloa oryzicola Vasing” value in experiment [11] was 5 (90% or more of herbicidal effect and crop phytotoxicity).

As to `O=C1CCCC(O)=C1C(=O)c1ccc(C(F)(F)F)n(CS(=O)(=O)C2CCCC2)c1=O` [I-60], the “herbicidal effect (index), Green Foxtail” value was 5 (90% or more of herbicidal effect and crop phytotoxicity) in experiment [1]; 5 (90% or more of herbicidal effect and crop phytotoxicity) in experiment [5]. The “herbicidal effect (index), Barnyardgrass” value in experiment [2] was 5 (90% or more of herbicidal effect and crop phytotoxicity); in experiment [6], 5 (90% or more of herbicidal effect and crop phytotoxicity). For the same compound, the “herbicidal effect (index), Velvetleaf” value was 5 (90% or more of herbicidal effect and crop phytotoxicity) in experiment [3]; 5 (90% or more of herbicidal effect and crop phytotoxicity) in experiment [7]. The “herbicidal effect (index), Slender Amaranth” value in experiment [4] is 5 (90% or more of herbicidal effect and crop phytotoxicity); in experiment [8] it was 5 (90% or more of herbicidal effect and crop phytotoxicity). Besides, the “herbicidal effect, Monochoria vaginalis” value in experiment [9] was 5 (90% or more of herbicidal effect and crop phytotoxicity). Besides, the “herbicidal effect, Scirpus juncoides Roxb.” value in [10] is 5 (90% or more of herbicidal effect and crop phytotoxicity). Also, the “herbicidal effect, Echinochloa oryzicola Vasing” value in experiment [11] was 5 (90% or more of herbicidal effect and crop phytotoxicity).

For the compound `Cn1ncc(C(=O)c2ccc(C(F)(F)F)n(C)c2=O)c1O` [IV-1, 4-[1,2-dihydro-1-methyl-2-oxo-6-(trifluoromethyl)pyridine-3-carbonyl]-5-hydroxy-1-methyl-1H-pyrazole], the “herbicidal effect (index), Green Foxtail” value in experiment [1] was 4 (70 to less than 90% of herbicidal effect and crop phytotoxicity). Further, the “herbicidal effect (index), Barnyardgrass” value in [2] is 5 (90% or more of herbicidal effect and crop phytotoxicity). Also, the “herbicidal effect (index), Velvetleaf” value in [3] is 5 (90% or more of herbicidal effect and crop phytotoxicity). Moreover, in experiment [4], the “herbicidal effect (index), Slender Amaranth” value was 5 (90% or more of herbicidal effect and crop phytotoxicity). For the same compound, the “herbicidal effect, Green Foxtail” value in [5] is 4 (70 to less than 90% of herbicidal effect and crop phytotoxicity). Moreover, the “herbicidal effect, Barnyardgrass” value in [6] is 4 (70 to less than 90% of herbicidal effect and crop phytotoxicity). In addition, in experiment [7], the “herbicidal effect, Velvetleaf” value was 5 (90% or more of herbicidal effect and crop phytotoxicity). Further, the “herbicidal effect, Slender Amaranth” value in [8] is 5 (90% or more of herbicidal effect and crop phytotoxicity). The “herbicidal effect, Monochoria vaginalis” value in experiment [9] is 5 (90% or more of herbicidal effect and crop phytotoxicity). Besides, the “herbicidal effect, Scirpus juncoides Roxb.” value in experiment [10] was 5 (90% or more of herbicidal effect and crop phytotoxicity). The “herbicidal effect, Echinochloa oryzicola Vasing” value in experiment [11] is 5 (90% or more of herbicidal effect and crop phytotoxicity).

Regarding `N#Cc1ccc(C(=O)C2=C(O)CCCC2=O)c(=O)n1-c1ccccc1` [I-243], the “herbicidal effect (index), Green Foxtail” value in [1] was 5 (90% or more of herbicidal effect and crop phytotoxicity). Further, the “herbicidal effect (index), Barnyardgrass” value in experiment [2] is 5 (90% or more of herbicidal effect and crop phytotoxicity). In experiment [3], the “herbicidal effect (index), Velvetleaf” value is 5 (90% or more of herbicidal effect and crop phytotoxicity). For the same compound, the “herbicidal effect (index), Slender Amaranth” value in experiment [4] was 5 (90% or more of herbicidal effect and crop phytotoxicity). For the same compound, the “herbicidal effect, Green Foxtail” value in [5] is 5 (90% or more of herbicidal effect and crop phytotoxicity). In [6], the “herbicidal effect, Barnyardgrass” value was 5 (90% or more of herbicidal effect and crop phytotoxicity). Moreover, the “herbicidal effect, Velvetleaf” value in [7] was 5 (90% or more of herbicidal effect and crop phytotoxicity). In experiment [8], the “herbicidal effect, Slender Amaranth” value was 5 (90% or more of herbicidal effect and crop phytotoxicity). In experiment [9], the “herbicidal effect, Monochoria vaginalis” value was 5 (90% or more of herbicidal effect and crop phytotoxicity). In addition, the “herbicidal effect, Scirpus juncoides Roxb.” value in experiment [10] was 5 (90% or more of herbicidal effect and crop phytotoxicity). The “herbicidal effect, Echinochloa oryzicola Vasing” value in experiment [11] was 5 (90% or more of herbicidal effect and crop phytotoxicity).

`CCC(C)n1c(C(F)(F)F)ccc(C(=O)c2cnn(C)c2O)c1=O` (centres unmarked) [IV-8]: the “herbicidal effect (index), Green Foxtail” value in experiment [1] is 5 (90% or more of herbicidal effect and crop phytotoxicity). The “herbicidal effect (index), Barnyardgrass” value in experiment [2] was 5 (90% or more of herbicidal effect and crop phytotoxicity). In addition, the “herbicidal effect (index), Velvetleaf” value in experiment [3] is 5 (90% or more of herbicidal effect and crop phytotoxicity). In addition, the “herbicidal effect (index), Slender Amaranth” value in experiment [4] is 5 (90% or more of herbicidal effect and crop phytotoxicity). For the same compound, in [5], the “herbicidal effect, Green Foxtail” value was 4 (70 to less than 90% of herbicidal effect and crop phytotoxicity). Moreover, the “herbicidal effect, Barnyardgrass” value in experiment [6] was 5 (90% or more of herbicidal effect and crop phytotoxicity). The “herbicidal effect, Velvetleaf” value in experiment [7] is 5 (90% or more of herbicidal effect and crop phytotoxicity). In addition, the “herbicidal effect, Slender Amaranth” value in [8] was 5 (90% or more of herbicidal effect and crop phytotoxicity). Further, in [9], the “herbicidal effect, Monochoria vaginalis” value is 5 (90% or more of herbicidal effect and crop phytotoxicity). In addition, in experiment [10], the “herbicidal effect, Scirpus juncoides Roxb.” value is 5 (90% or more of herbicidal effect and crop phytotoxicity). In [11], the “herbicidal effect, Echinochloa oryzicola Vasing” value is 5 (90% or more of herbicidal effect and crop phytotoxicity).
